Test results as given in PMC8019157 (Antiviral research, 2021).
Like-named read-outs stand apart in the source and are kept apart here.

What was measured:
SERCA1 [1] = molecular target: T1, SERCA1 (Oryctolagus cuniculus, UniProt P04191); test: SERCA1 ATPase activity; type: biochemical, rabbit
[2] = system: C2C12 skeletal muscle myotubes; test: Live-cell Ca^2+ imaging; type: cell-based, Mouse
RyR1 = RyR1 (Oryctolagus cuniculus, UniProt P11716); test: Lipid bilayer single channel recordings of purified RyR1; type: biochemical, rabbit
Chain of RyR1 (P11716 whole entry): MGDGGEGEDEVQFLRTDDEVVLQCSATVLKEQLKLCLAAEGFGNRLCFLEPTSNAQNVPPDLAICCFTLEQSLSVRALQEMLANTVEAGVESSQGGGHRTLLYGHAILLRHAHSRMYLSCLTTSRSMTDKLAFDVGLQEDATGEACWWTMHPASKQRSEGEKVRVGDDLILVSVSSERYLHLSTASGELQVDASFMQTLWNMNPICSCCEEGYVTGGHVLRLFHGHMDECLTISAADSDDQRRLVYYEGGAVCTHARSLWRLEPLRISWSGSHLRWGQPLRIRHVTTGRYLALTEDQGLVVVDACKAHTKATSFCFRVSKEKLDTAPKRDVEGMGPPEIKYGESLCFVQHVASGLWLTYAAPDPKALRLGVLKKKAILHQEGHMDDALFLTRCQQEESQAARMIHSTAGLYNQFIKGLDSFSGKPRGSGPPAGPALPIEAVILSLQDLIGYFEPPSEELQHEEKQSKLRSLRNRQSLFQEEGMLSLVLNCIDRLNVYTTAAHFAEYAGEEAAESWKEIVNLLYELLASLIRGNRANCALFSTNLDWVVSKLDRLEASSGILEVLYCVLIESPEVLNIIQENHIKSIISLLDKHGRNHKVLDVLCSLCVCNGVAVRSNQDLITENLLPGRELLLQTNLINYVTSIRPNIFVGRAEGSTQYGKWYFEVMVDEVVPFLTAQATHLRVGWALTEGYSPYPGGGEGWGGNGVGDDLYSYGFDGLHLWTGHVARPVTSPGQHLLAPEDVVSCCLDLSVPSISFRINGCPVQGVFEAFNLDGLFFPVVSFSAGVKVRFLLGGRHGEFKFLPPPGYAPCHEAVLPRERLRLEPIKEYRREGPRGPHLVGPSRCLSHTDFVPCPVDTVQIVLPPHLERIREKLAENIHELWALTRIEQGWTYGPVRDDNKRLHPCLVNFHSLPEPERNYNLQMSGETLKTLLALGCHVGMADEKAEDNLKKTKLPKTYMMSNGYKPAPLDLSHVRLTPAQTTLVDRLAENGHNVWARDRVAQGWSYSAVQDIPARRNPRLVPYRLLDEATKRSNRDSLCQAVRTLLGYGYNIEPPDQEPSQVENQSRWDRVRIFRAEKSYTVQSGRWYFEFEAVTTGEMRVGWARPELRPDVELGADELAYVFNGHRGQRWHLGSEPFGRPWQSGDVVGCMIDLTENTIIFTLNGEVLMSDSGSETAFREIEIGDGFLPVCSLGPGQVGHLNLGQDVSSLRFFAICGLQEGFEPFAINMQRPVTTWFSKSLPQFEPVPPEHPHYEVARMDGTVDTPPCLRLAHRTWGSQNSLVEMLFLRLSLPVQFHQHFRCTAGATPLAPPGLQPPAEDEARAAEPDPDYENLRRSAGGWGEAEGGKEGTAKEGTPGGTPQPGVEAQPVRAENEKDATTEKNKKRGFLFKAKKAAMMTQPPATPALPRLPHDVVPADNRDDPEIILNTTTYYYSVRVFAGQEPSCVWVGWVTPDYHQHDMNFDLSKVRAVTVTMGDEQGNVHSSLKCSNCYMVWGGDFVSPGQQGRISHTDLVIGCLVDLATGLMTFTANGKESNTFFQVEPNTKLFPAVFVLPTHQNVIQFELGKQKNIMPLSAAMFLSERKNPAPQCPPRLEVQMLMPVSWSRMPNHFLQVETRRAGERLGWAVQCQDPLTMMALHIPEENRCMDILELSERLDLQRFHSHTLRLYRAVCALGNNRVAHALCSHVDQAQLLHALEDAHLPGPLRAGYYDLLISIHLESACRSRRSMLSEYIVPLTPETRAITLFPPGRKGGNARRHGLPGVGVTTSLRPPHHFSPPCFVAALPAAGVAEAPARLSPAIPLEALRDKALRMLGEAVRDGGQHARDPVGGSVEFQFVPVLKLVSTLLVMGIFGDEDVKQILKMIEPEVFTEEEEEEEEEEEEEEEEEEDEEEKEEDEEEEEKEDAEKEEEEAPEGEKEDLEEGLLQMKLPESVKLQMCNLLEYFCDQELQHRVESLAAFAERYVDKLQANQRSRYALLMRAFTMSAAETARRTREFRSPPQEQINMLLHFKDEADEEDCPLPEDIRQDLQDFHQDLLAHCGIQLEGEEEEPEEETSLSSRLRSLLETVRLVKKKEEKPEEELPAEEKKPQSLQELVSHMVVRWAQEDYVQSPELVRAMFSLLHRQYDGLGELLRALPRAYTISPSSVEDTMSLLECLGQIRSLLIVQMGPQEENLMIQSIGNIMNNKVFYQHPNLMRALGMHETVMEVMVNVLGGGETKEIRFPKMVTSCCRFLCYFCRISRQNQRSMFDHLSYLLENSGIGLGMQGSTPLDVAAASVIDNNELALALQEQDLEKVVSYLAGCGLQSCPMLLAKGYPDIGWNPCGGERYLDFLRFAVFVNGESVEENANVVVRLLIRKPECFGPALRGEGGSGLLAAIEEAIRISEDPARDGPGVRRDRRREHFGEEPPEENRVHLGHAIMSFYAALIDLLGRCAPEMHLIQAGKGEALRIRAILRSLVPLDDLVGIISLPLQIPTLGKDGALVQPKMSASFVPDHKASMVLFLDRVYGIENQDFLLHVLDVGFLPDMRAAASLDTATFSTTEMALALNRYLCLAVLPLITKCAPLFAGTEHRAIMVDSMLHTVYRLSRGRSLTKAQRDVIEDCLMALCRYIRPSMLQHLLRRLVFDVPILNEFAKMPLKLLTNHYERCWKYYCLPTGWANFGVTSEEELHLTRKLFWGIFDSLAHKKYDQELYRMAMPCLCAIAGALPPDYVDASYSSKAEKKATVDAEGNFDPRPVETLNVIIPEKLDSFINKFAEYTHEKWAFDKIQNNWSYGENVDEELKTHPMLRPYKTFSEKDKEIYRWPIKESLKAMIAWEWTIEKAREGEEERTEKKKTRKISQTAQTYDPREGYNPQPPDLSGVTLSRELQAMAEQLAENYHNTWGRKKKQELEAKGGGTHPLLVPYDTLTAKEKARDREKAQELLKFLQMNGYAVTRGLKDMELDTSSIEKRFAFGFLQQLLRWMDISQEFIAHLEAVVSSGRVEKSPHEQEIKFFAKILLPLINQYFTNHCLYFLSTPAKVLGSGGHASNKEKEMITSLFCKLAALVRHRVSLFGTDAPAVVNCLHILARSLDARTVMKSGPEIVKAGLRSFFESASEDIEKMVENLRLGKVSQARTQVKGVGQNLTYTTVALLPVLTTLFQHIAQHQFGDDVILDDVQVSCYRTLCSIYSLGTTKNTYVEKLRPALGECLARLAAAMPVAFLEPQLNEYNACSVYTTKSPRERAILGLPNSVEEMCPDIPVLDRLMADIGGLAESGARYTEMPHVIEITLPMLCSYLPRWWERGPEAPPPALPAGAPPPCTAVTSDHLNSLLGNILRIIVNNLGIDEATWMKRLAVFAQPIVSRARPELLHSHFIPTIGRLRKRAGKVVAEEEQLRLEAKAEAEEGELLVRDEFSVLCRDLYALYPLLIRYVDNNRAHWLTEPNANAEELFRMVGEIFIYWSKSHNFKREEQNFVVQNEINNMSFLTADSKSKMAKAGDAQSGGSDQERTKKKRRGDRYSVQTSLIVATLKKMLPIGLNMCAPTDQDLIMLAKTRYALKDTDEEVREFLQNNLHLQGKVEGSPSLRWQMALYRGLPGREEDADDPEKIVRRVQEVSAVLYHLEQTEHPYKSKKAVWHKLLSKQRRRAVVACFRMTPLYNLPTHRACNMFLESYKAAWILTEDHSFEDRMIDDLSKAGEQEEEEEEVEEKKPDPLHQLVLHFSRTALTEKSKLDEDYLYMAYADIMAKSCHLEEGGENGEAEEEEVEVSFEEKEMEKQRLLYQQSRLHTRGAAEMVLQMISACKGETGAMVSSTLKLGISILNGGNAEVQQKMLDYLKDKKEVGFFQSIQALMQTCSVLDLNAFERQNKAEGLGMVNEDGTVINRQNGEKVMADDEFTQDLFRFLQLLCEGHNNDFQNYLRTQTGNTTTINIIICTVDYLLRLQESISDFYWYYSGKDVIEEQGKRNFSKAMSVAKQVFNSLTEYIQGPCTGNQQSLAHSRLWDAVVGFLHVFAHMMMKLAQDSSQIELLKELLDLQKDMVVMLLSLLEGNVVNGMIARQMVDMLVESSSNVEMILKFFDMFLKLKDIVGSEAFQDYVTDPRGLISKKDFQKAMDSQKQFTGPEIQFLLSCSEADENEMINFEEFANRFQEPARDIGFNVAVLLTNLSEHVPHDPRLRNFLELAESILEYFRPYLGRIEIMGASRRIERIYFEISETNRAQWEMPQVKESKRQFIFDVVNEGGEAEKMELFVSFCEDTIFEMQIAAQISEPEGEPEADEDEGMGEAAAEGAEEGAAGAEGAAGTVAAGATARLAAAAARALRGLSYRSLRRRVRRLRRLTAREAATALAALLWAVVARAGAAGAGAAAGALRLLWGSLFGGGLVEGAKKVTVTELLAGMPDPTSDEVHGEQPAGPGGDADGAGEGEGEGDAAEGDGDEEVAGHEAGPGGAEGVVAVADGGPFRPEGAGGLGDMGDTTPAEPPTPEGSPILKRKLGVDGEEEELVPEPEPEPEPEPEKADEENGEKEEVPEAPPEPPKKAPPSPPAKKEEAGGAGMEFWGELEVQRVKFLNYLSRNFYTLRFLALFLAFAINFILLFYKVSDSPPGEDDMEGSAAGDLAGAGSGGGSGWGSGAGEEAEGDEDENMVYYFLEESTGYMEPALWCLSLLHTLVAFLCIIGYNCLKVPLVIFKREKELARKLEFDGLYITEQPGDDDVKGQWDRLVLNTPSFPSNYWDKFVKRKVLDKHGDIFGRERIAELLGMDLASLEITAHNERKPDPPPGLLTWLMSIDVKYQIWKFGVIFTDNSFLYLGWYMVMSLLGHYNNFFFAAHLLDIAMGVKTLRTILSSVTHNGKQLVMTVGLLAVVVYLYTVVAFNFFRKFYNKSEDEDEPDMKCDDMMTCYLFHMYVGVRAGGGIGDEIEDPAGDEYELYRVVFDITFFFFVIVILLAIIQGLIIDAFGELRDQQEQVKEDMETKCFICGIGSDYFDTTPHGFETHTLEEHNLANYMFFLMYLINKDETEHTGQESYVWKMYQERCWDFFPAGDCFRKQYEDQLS

[3] = Drug dissolved in ethanol/water; type: physicochemical; details: room temperature (22 °C), HPLC
SERCA1 [4] = molecular target: T1, SERCA1; test: ATP-dependent ^45Ca^2+ accumulation by longitudinal SR vesicles; type: biochemical, rabbit; details: for effect on ATP-dependent Ca^2+ transport by SERCA1: 0 – 31.2 μM, 20 min at 37°C
[5] = molecular target: rabbit skeletal muscle ryanodine receptor Ca^2+ release channel (RyR1) (Oryctolagus cuniculus, UniProt P11716); test: [^3H]ryanodine binding/displacement assay with SR membrane vesicles; details: for maximum percent enhancement of [^3H]ryanodine binding over control: 6.7 nM [^3H]ryanodine; for maximum percent enhancement of [^3H]ryanodine binding over control / concentrations that enhanced [^3H]ryanodine binding to RyR1: 2 hr at 37°C
Chain of rabbit skeletal muscle ryanodine receptor Ca^2+ release channel (RyR1) (P11716 whole entry): as above

[6] = cited from earlier work; for Cmax: read-out: plasma Cmax
[7] = 3 μM, antiretroviral-naïve C2C12 cells
[8] = Ritonavir 2.50 μM cis, 3.0 μM cis Ca^2+
[9] = Ritonavir 5.00 μM cis, 3.0 μM cis Ca^2+
[10] = Ritonavir 12.50 μM cis, 3.0 μM cis Ca^2+
[11] = Ritonavir 20.00 μM cis, 3.0 μM cis Ca^2+
[12] = Ritonavir 31.20 μM cis, 3.0 μM cis Ca^2+
[13] = Ritonavir […] cis, 3.0 μM cis Ca^2+
[14] = up to five minutes after addition
[15] = Atazanavir 1.56 μM cis, 3.3 μM cis Ca^2+
[16] = Atazanavir 3.12 μM cis, 3.3 μM cis Ca^2+
[17] = Atazanavir 6.78 μM cis, 3.3 μM cis Ca^2+
[18] = Atazanavir 20.00 μM cis, 3.3 μM cis Ca^2+
[19] = Atazanavir 30.00 μM cis, 3.3 μM cis Ca^2+
[20] = Atazanavir […] cis, 3.3 μM cis Ca^2+

CC(C)c1nc(CN(C)C(=O)N[C@H](C(=O)N[C@@H](Cc2ccccc2)C[C@H](O)[C@H](Cc2ccccc2)NC(=O)OCc2cncs2)C(C)C)cs1 [RTV, ritonavir]
effect on ATPase activity of SERCA1 (SERCA1 [1]; 0.25 to 20 μM, presence or absence of A23187): dose-dependently decreased | Ca^2+ transient in C2C12 cells pretreated with 50 μM ryanodine for 20 min [2]: attenuated the amplitude | duration of the Ca^2+ transient ([2]; 3 μM): about 20 sec | effect on plasma membrane of C2C12 cells ([2]; 3 μM): blebbing | rate of decay of the Ca^2+ transient, times faster than that of EFV ([2]; 3 μM): 3 x | mean rate of Ca^2+ rise [2, 7]: 0.54 ± 0.06 f.u./sec | peak amplitude of the Ca^2+ transient [2, 7]: 4.3 ± 0.2 f.u | response to a second dose in previously exposed C2C12 cells ([2]; second dose 3 μM): triggered a second Ca^2+ transient | increase in Po of RyR1 (RyR1; 720 nM cis RTV, 3.0 μM cis Ca^2+): three-fold | Po of RyR1 (RyR1; 3.2 μM cis RTV): 0.15 ± 0.02 | conductance of reduced conductance state R’2 (RyR1; 3.2 μM cis RTV): 599 ± 24 pS | current amplitude of RyR1 (R’2) (RyR1; 3.2 μM cis RTV): 84 % of maximum | reduction of current amplitude of RyR1 (RyR1; 3.2 μM cis RTV): 16% | current amplitude of RyR1 (R’2) (RyR1; 31.2 μM cis RTV): 84 % of maximum | Po of RyR1 (RyR1; 31.2 μM cis RTV, +30 mV): 0.92 ± 0.01 | Close - maximally opened transitions (Hz) (RyR1; [8]): 998 ± 89 Hz | Dwell time closed state (RyR1; [8]): 1.01 ± 0.22 ms | Dwell time open state (RyR1; [8]): 0.68 ± 0.06 ms | Po (+30 mV) (RyR1; [8]): 0.29 ± 0.03 | Close - maximally opened transitions (Hz) (RyR1; [9]): 762 ± 45 Hz | Dwell time open state (RyR1; [9]): 1.22 ± 0.15 ms | Po (+30 mV) (RyR1; [9]): 0.07 ± 0.04 | Close - maximally opened transitions (Hz) (RyR1; [10]): 828 ± 40 Hz | Dwell time open state (RyR1; [10]): 1.64 ± 0.03 ms | Po (+30 mV) (RyR1; [10]): 0.11 ± 0.03 | Close - maximally opened transitions (Hz) (RyR1; [11]): 848 ± 37 Hz | Dwell time closed state (RyR1; [11]): 10.57 ± 1.24 ms | Dwell time open state (RyR1; [11]): 1.01 ± 0.06 ms | Po (+30 mV) (RyR1; [11]): 0.11 ± 0.02 | Close - maximally opened transitions (Hz) (RyR1; [12]): 880 ± 30 Hz | Dwell time closed state (RyR1; [12]): 0.72 ± 0.09 ms | Dwell time open state (RyR1; [12]): 1.13 ± 0.09 ms | Po (+30 mV) (RyR1; [12]): 0.92 ± 0.01 | Close - maximally opened transitions (Hz) (RyR1; [13]): 773 ± 47 Hz | Dwell time closed state (RyR1; [13]): 4.25 ± 0.11 ms | Dwell time open state (RyR1; [13]): 0.35 ± 0.02 ms | Po (+30 mV) (RyR1; [13]): 0.07 ± 0.01 | effect on Po of RyR1 of concentrations lower than 720 nM (RyR1; [14]): did not elicit changes in the Po | fraction dissolved in ethanol/water (1:1) [3]: 1.5% | stock concentration in ethanol/water (1:1) [3]: 0.39 mM | effect on ATP-dependent Ca^2+ transport by SERCA1 (SERCA1 [4]): dose-dependently inhibited | maximum percent enhancement of [^3H]ryanodine binding over control [5]: 62.3 ± 6.2% | concentrations that enhanced [^3H]ryanodine binding to RyR1 [5]: 1 to 60 nM

COC(=O)N[C@H](C(=O)N[C@@H](Cc1ccccc1)[C@@H](O)CN(Cc1ccc(-c2ccccn2)cc1)NC(=O)[C@@H](NC(=O)OC)C(C)(C)C)C(C)(C)C [ATV, atazanavir]
effect on ATPase activity of SERCA1 (SERCA1 [1]; 0 – 20 μM, 20 min at 37°C, with and without A23187): biphasic | effect on ATPase activity of SERCA1 (SERCA1 [1]; concentrations higher than 5.0 μM, with and without A23187): decreased the ATPase activity | effect on ATPase activity of SERCA1 (SERCA1 [1]; concentrations of 0.25 and 5.0 μM, with and without A23187): potentiated | plasma Cmax ([6]; 300 mg/day ATV): ~ 2.2 μg/ml | Cmax ([6]; 300 mg/day ATV): ~3 µM | Cmax ([6]; ATV co-administered with RTV (100 mg/day)): ~6 µM | Ca^2+ transient in C2C12 cells pretreated with 50 μM ryanodine for 20 min [2]: attenuated the amplitude | diameter of plasma membrane blebs, times larger than that of EFV ([2]; 6 μM): ~ 1.5 × | effect on plasma membrane of C2C12 cells ([2]; 6 μM): blebbing | rate of Ca^2+ transient rise, times faster than that of EFV ([2]; 6 μM): 7.7 × | rate of decay of the Ca^2+ transient, times faster than that of EFV ([2]; 6 μM): 3 x | mean peak amplitude of the Ca^2+ transient ([2]; 6 μM, antiretroviral-naïve C2C12 myotubes): 4.4 ± 0.1 f.u. | response to a second dose in previously exposed C2C12 cells ([2]; second dose 6 μM): did not elicit a second Ca^2+ transient | increase in Po of RyR1 (RyR1; 1.6 μM cis ATV, within 15 sec, 3.3 μM cis Ca^2+): 40% | effect on conductance of RyR1 (RyR1; 3.2 μM cis ATV): did not alter the conductance | Po of RyR1 (RyR1; 6.8 μM cis ATV): 0.92 ± 0.10 | conductance of reduced conductance state R’1 (RyR1; 6.8 μM cis ATV): 532 ± 34 pS | current amplitude of RyR1 (reduced conductance state R’1) (RyR1; 6.8 μM cis ATV): 74 % of maximum | dwell time in the opened state (RyR1; 6.8 μM cis ATV, ± 30 mV holding potential): > 25 ms | current amplitude of RyR1 (R’1) (RyR1; 20.0 μM and 30.0 μM cis ATV): 74 % of maximum | Closed- maximally opened transitions (Hz) (RyR1; [15]): 789 ± 25 Hz | Dwell time closed state (RyR1; [15]): 1.97 ± 0.03 ms | Dwell time open state (RyR1; [15]): 0.66 ± 0.02 ms | Po (+30 mV) (RyR1; [15]): 0.14 ± 0.01 | Closed- maximally opened transitions (Hz) (RyR1; [16]): 1102 ±22 Hz | Dwell time closed state (RyR1; [16]): 0.62 ± 0.03 ms | Dwell time open state (RyR1; [16]): 2.83 ± 0.08 ms | Po (+30 mV) (RyR1; [16]): 0.56 ± 0.03 | Closed- maximally opened transitions (Hz) (RyR1; [17]): 206 ± 30 Hz | Dwell time closed state (RyR1; [17]): 0.55 ± 0.07 ms | Dwell time open state (RyR1; [17]): 25.12 ± 1.52 ms | Po (+30 mV) (RyR1; [17]): 0.92 ± 0.10 | Closed- maximally opened transitions (Hz) (RyR1; [18]): 750 ± 55 Hz | Dwell time closed state (RyR1; [18]): 2.22 ± 0.15 ms | Dwell time open state (RyR1; [18]): 1.44 ± 0.05 ms | Po (+30 mV) (RyR1; [18]): 0.60 ± 0.04 | Closed- maximally opened transitions (Hz) (RyR1; [19]): 142 ±20 Hz | Dwell time closed state (RyR1; [19]): 5.65 ± 0.06 ms | Dwell time open state (RyR1; [19]): 0.33 ± 0.01 ms | Po (+30 mV) (RyR1; [19]): 0.11 ± 0.01 | Closed- maximally opened transitions (Hz) (RyR1; [20]): 225 ±16 Hz | Dwell time closed state (RyR1; [20]): 0.43 ± 0.05 ms | Dwell time open state (RyR1; [20]): 5.70 ± 0.20 ms | Po (+30 mV) (RyR1; [20]): 0.82 ± 0.04 | effect on Po of RyR1 of concentrations lower than 1.6 μM (RyR1; [14]): did not elicit changes in the Po | fraction dissolved in ethanol/water (1:1) [3]: 12.9% | stock concentration in ethanol/water (1:1) [3]: 3.2 mM | effect on ATP-dependent Ca^2+ transport by SERCA1 (SERCA1 [4]): biphasic | effect on Ca^2+ accumulation via SERCA1 (SERCA1 [4]; > 5 μM): inhibiting | effect on Ca^2+ accumulation via SERCA1 (SERCA1 [4]; up to 5.0 μM): potentiating | EC50 [5]: 14.9 ± 1.4 nM | IC50 [5]: 6.2 ± 0.8 µM | Ki [5]: 1600 ± 200 nM | maximum percent enhancement of [^3H]ryanodine binding over control [5]: 40.5 ± 5.2% | concentrations that enhanced [^3H]ryanodine binding to RyR1 [5]: 1 to 20 nM
